Experimental findings from ChEMBL document CHEMBL4376850, “1-Benzylpyrrolidine-3-amine-based BuChE inhibitors with anti-aggregating, antioxidant and metal-chelating properties as multifunctional agents against Alzheimer's disease” (Eur J Med Chem, 2020) are described below.

Structures are written as SMILES. Active and inactive are the calls of the source. No cut-off for these calls is given here. Where only a bound is given, the exact number is not on record here.

The target of experiment [1] is Cholinesterase (Equus caballus) (UniProt P81908). The experiment is described as follows: Inhibition of equine serum BuChE at 10 uM using butyrylthiocholine chloride as substrate pre-incubated for 5 mins followed by substrate addition and measured after 5 mins by Ellman's method relative to control. (DTNB colorimetry detects thiols as they appear.)
Experiment [2] has as its target T1, Beta-secretase 1 (Homo sapiens, UniProt P56817). The following applies: 50 uM.
For experiment [3], the target named is T1, Beta-secretase 1.
The target of experiment [4] is Amyloid-beta precursor protein (Homo sapiens) (UniProt P05067). Particulars: at 10 µM.
Description: Inhibition of amyloid beta (1 to 42) (unknown origin) aggregation at 10 uM expressed in Escherichia coli BL21 (DE3) incubated for 24 hrs by thioflavin T-based fluorometric assay relative to control
Experiment [5] has the same target. In words: Inhibition of HFIP-pretreated amyloid beta (1 to 42) (unknown origin) aggregation at 10 uM after 48 hrs measured every 3 mins by thioflavin T-based fluorometric assay relative to control.
Experiment [6] deals with Microtubule-associated protein tau (Homo sapiens) (UniProt P10636). The experiment is described as follows: Inhibition of tau aggregation (unknown origin) at 10 uM expressed in Escherichia coli BL21 (DE3) incubated for 24 hrs by thioflavin T-based fluorometric assay relative to control.
Experiment [7] deals with Acetylcholinesterase (Electrophorus electricus) (UniProt O42275). The experiment is described as follows: Inhibition of Electrophorus electricus AChE at 10 uM using acetylthiocholine iodide as substrate preincubated for 5 mins followed by substrate addition and measured after 5 mins by Ellman's method relative to control.
A short description of experiment [8]: Metal chelating activity assessed as Cu2+-compound complex formation at 50 uM after 30 mins by UV-Visible spectrophotometric method.
For experiment [9], the target named is T1, Beta-secretase 1. The experiment is described as follows: Inhibition of BACE1 (unknown origin).
The target of the next experiment is Cholinesterase (Equus caballus, UniProt P81908). The experiment is described as follows: Inhibition of equine BuChE.
Experiment [10] can be described thus: Antioxidant activity assessed as increase in total ferric ion reducing activity at 75 uM using FeCl3.H2O and TPTZ incubated for 60 mins by FRAP assay relative to control. It is filed as functional. Further details: scale not given: the % may be the effect or the level left.
Experiment [11] can be described thus: Antioxidant activity assessed as ABTS radical scavenging activity at 150 uM measured after 60 mins by spectrophotometric assay relative to control. It is filed as functional.
Experiment [12] in a line: Antioxidant activity assessed as ABTS radical scavenging activity at 30 uM measured after 30 mins by spectrophotometric assay relative to control. It is filed as functional.
Experiment [13] is described as follows: Antioxidant activity assessed as ABTS radical scavenging activity at 75 uM measured after 30 mins by spectrophotometric assay relative to control. It is filed as functional.
The nature of experiment [14]: Antioxidant activity assessed as ABTS radical scavenging activity at 75 uM measured after 60 mins by spectrophotometric assay relative to control. Format: functional.
Experiment [15] can be described thus: Antioxidant activity assessed as increase in total ferric ion reducing activity at 30 uM using FeCl3.H2O and TPTZ incubated for 5 mins by FRAP assay relative to control. Format: functional. The arrangement: scale not given: the % may be the effect or the level left.
A short description of experiment [16]: Antioxidant activity assessed as increase in total ferric ion reducing activity at 30 uM using FeCl3.H2O and TPTZ incubated for 30 mins by FRAP assay relative to control. Format: functional. Further details: scale not given: the % may be the effect or the level left.
The nature of experiment [17]: Antioxidant activity assessed as ABTS radical scavenging activity at 150 uM measured after 5 mins by spectrophotometric assay relative to control. Format: functional.
The nature of experiment [18]: Antioxidant activity assessed as increase in total ferric ion reducing activity at 30 uM using FeCl3.H2O and TPTZ incubated for 60 mins by FRAP assay relative to control. Format: functional. The arrangement: scale not given: the % may be the effect or the level left.
Experiment [19] is described as follows: Antioxidant activity assessed as ABTS radical scavenging activity at 30 uM measured after 5 mins by spectrophotometric assay relative to control. Format: functional.
Experiment [20] in a line: Antioxidant activity assessed as ABTS radical scavenging activity at 150 uM measured after 30 mins by spectrophotometric assay relative to control. It is filed as functional.
Experiment [21] is described as follows: Antioxidant activity assessed as increase in total ferric ion reducing activity at 150 uM using FeCl3.H2O and TPTZ incubated for 30 mins by FRAP assay relative to control. Format: functional. The arrangement: scale not given: the % may be the effect or the level left.
Experiment [22] is described as follows: Antioxidant activity assessed as increase in total ferric ion reducing activity at 150 uM using FeCl3.H2O and TPTZ incubated for 60 mins by FRAP assay relative to control. Format: functional. Further details: scale not given: the % may be the effect or the level left.
A short description of experiment [23]: Antioxidant activity assessed as increase in total ferric ion reducing activity at 150 uM using FeCl3.H2O and TPTZ incubated for 5 mins by FRAP assay relative to control. Further details: scale not given: the % may be the effect or the level left. Format: functional.
Experiment [24] is described as follows: Antioxidant activity assessed as ABTS radical scavenging activity at 30 uM measured after 60 mins by spectrophotometric assay relative to control. Format: functional.
Experiment [25] can be described thus: Antioxidant activity assessed as increase in total ferric ion reducing activity at 75 uM using FeCl3.H2O and TPTZ incubated for 30 mins by FRAP assay relative to control. It is filed as functional. Further details: scale not given: the % may be the effect or the level left.
Experiment [26] can be described thus: Antioxidant activity assessed as increase in total ferric ion reducing activity at 75 uM using FeCl3.H2O and TPTZ incubated for 5 mins by FRAP assay relative to control. Format: functional. The arrangement: scale not given: the % may be the effect or the level left.
Experiment [27] can be described thus: Antioxidant activity assessed as ABTS radical scavenging activity at 75 uM measured after 5 mins by spectrophotometric assay relative to control. Format: functional.

A word on the inhibition: it is the percentage by which the read-out fell short of the control. A word on the IC50: it is the concentration needed to halve the response being measured.

Sequence of Acetylcholinesterase (Electrophorus electricus) (O42275 24-633 limits assumed): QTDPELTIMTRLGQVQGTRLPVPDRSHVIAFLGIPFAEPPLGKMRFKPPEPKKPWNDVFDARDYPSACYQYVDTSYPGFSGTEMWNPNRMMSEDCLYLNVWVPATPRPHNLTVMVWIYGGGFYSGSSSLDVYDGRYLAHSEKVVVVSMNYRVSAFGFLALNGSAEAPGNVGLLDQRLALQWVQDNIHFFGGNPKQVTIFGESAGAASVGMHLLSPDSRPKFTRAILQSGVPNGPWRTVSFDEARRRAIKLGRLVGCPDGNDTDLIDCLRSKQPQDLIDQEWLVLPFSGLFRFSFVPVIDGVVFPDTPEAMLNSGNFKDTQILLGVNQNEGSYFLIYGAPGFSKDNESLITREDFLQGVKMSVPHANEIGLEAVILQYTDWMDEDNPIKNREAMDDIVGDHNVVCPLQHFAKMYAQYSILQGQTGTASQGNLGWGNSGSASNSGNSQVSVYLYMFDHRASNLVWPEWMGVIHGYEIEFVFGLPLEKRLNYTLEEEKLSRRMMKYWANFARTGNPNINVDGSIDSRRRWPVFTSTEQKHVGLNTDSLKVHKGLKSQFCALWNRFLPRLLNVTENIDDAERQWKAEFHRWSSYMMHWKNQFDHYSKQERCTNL
Sequence of Amyloid-beta precursor protein (Homo sapiens) (P05067 whole entry): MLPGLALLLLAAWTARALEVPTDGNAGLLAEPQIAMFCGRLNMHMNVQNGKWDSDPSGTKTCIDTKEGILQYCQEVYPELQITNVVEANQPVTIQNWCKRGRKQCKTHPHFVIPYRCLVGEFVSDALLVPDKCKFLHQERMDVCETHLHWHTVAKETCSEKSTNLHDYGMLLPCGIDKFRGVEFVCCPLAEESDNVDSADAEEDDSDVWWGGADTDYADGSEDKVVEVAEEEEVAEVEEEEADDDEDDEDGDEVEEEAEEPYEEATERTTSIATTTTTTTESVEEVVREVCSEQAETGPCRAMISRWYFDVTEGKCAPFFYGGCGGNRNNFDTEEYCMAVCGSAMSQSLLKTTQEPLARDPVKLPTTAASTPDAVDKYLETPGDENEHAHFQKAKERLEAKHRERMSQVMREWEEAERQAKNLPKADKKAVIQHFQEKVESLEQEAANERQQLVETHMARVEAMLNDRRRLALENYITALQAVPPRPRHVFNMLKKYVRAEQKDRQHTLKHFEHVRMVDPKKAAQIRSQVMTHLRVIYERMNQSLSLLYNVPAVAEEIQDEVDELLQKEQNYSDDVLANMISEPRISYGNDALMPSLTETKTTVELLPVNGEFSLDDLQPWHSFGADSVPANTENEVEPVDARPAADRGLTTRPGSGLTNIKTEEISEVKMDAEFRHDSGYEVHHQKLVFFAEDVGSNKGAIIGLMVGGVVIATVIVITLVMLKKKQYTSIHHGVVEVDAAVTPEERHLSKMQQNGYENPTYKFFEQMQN
T1 sequence (P56817 whole entry): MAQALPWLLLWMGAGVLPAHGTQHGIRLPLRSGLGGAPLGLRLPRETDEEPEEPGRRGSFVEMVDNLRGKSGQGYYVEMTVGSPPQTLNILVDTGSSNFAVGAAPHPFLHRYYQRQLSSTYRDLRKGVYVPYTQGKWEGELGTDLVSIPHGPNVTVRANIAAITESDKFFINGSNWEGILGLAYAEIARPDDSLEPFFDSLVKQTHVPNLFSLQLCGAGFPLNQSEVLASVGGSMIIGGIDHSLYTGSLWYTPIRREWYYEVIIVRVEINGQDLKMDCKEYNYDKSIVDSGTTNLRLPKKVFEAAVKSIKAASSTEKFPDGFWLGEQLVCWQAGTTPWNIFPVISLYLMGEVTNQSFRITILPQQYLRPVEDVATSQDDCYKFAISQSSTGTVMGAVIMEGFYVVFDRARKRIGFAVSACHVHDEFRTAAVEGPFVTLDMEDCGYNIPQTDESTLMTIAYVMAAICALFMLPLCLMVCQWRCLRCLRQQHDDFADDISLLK
Sequence of Cholinesterase (Equus caballus) (P81908 whole entry): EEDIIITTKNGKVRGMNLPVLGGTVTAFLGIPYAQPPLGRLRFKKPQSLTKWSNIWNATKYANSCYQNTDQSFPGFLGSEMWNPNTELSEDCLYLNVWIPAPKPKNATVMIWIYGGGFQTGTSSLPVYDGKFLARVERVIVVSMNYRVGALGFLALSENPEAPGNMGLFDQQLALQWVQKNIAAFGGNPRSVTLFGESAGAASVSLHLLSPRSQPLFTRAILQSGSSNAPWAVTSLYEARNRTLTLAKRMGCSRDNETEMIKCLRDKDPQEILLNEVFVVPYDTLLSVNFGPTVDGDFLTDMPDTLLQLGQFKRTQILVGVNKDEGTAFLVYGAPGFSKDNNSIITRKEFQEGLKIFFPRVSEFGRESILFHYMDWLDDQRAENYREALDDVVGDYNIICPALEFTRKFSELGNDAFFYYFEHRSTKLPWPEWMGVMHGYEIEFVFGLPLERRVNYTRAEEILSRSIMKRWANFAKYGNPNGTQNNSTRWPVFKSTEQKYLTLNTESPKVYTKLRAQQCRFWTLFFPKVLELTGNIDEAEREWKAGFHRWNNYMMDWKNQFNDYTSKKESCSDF
Sequence of Microtubule-associated protein tau (Homo sapiens) (P10636 whole entry): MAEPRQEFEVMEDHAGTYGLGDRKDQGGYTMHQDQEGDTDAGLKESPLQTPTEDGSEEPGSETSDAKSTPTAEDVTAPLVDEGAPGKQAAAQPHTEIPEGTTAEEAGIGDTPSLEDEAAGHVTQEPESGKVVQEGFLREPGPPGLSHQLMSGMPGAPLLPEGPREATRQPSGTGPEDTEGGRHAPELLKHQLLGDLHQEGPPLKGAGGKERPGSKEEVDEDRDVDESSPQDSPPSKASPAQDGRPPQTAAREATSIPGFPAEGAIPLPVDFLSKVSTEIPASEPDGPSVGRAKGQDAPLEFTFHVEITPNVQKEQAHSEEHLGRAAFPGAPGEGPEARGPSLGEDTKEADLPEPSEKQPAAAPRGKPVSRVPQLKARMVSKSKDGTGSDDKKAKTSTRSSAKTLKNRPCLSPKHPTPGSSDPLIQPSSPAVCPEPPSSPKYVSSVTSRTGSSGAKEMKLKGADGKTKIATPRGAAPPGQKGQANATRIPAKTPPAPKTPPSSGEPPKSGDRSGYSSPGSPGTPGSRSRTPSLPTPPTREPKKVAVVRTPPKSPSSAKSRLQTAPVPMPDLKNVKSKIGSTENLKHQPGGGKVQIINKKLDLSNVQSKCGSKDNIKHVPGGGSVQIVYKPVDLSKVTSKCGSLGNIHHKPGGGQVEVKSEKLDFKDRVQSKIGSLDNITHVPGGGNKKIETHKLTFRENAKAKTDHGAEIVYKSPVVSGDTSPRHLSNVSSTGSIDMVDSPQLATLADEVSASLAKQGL
Sequence of Cholinesterase (P81908 whole entry): as the sequence (P81908 whole entry) above

`O=C(CN1CCC(C(c2ccccc2)c2ccccc2)CC1)NC1CCN(Cc2ccccc2)C1` (stereo unspecified): the inhibition is 24.6% in [1]; 52.2% on Beta-secretase 1 [2]; 53.3% in [4]; 35.3% in experiment [5]; 64.3% in [6]; less than 10% in experiment [7]. The molecule also returned an IC50 against Beta-secretase 1 [3] of 55.2 µM.

For the molecule `c1ccc(CN2CCC(NCCN3CCC(C(c4ccccc4)c4ccccc4)CC3)C2)cc1` (stereo unspecified), the inhibition was 44.2% in experiment [1]; 54.3% on Beta-secretase 1 [2]; 31.7% in [4]; 60.4% in experiment [6]; 25.2% in [7]. The concentration for half-maximal inhibition (IC50) against Beta-secretase 1 [3] turned out to be 49.8 µM.

For the molecule `Cc1c(OCc2ccccc2)cccc1N1CCN(CC(=O)NC2CCN(Cc3ccccc3)C2)CC1` (stereo unspecified), the outcome in experiment [8] was Active. The values for the half-inhibitory concentration (IC50) at Beta-secretase 1 [9] and against Cholinesterase were 33 µM and 76 µM, respectively.

On to `c1ccc(CN2CCN(CCNC3CCN(Cc4ccccc4)C3)CC2)cc1` (stereo unspecified), for which the Activity in experiment [10] came to 30%; in experiment [11] it was 93%; in [12], 36%; in [13], 50%; in [14], 58%; in experiment [15], 9%. Further, the Activity was 13% in [16]; 54% in experiment [17]; 15% in experiment [18]; 18% in experiment [19]; 84% in [20]; 48% in experiment [21]. Also, the Activity in experiment [22] was 51%; in [23], 45%; in [24], 43%; in experiment [25] it was 27%; in experiment [26] it was 17%; in [27], 26%. The inhibition is 36.7% in [1]; 13.6% against Beta-secretase 1 [2]; 37.9% in experiment [4]; 19.2% in experiment [5]; 60.6% in experiment [6]; less than 10% in [7]. The result in experiment [8] was Active.
